US20260262643A1, “HERBICIDAL BENZOXAZINES” (FMC CORPORATION, priority 2022, published 2026)
Where two headings read alike, the source gives them in different places.

What was measured:
[1] = tested on: horseweed; assay: Test A postemergence; assay type: in vivo, Erigeron canadensis; conditions: Erigeron canadensis, post-emergence, 240 h, postemergence, 10 days, 0 to 100 scale (0 no effect, 100 complete control); for pest or weed control at 125 g/ha: 125 g ai/ha, read-out: Horseweed plant response rating; for pest or weed control at 500 g/ha: 500 g ai/ha, visual injury, read-out: Plant response rating, Horseweed
Procedure, shortened: (§1)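 Visual injury ratings on a 0–100 scale (100 = complete control) versus untreated controls, taken 10 days after treatment in greenhouse. Preemergence: directed soil spray onto seeded loam/sand. Postemergence: foliar application at one- to two-leaf stage, plants 2–10 cm. Formulation: non-phytotoxic solvent plus surfactant.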

[2] = tested on: soybean; assay: Test A postemergence; assay type: in vivo, Glycine max; conditions: Glycine max, post-emergence, 240 h, postemergence, 10 days, 0 to 100 scale (0 no effect, 100 complete control); for plant injury at 125 g/ha: 125 g ai/ha, read-out: Soybean plant response rating; for plant injury at 500 g/ha: 500 g ai/ha, visual injury, read-out: Plant response rating, Soybean
Procedure, shortened: as §1

[3] = tested on: kochia; assay: Test A postemergence; assay type: in vivo, Bassia scoparia; conditions: Bassia scoparia, post-emergence, 240 h, postemergence, 10 days, 0 to 100 scale (0 no effect, 100 complete control); for pest or weed control at 125 g/ha: 125 g ai/ha, read-out: Kochia plant response rating; for pest or weed control at 500 g/ha: 500 g ai/ha, visual injury, read-out: Plant response rating, Kochia
Procedure, shortened: as §1

[4] = tested on: pigweed, palmer; assay: Test A preemergence; assay type: in vivo, Amaranthus palmeri; conditions: Amaranthus palmeri, pre-emergence, 240 h, read-out: Plant response rating, Pigweed, Palmer; for pest or weed control at 125 g/ha: 125 g ai/ha; for pest or weed control at 500 g/ha: 500 g ai/ha
Procedure, shortened: as §1

[5] = tested on: kochia; assay: Test A preemergence; assay type: in vivo, Bassia scoparia; conditions: Bassia scoparia, pre-emergence, 240 h, read-out: Plant response rating, Kochia; for pest or weed control at 125 g/ha: 125 g ai/ha; for pest or weed control at 500 g/ha: 500 g ai/ha
Procedure, shortened: as §1

[6] = tested on: corn; assay: Test A postemergence; assay type: in vivo, Zea mays; conditions: Zea mays, post-emergence, 240 h, postemergence, 10 days, 0 to 100 scale (0 no effect, 100 complete control); for plant injury at 125 g/ha: 125 g ai/ha, read-out: Corn plant response rating; for Corn plant response rating (crop injury, 0 = no effect, 100 = complete kill) at 500 g/ha: 500 g ai/ha, visual injury
Procedure, shortened: as §1

[7] = tested on: ryegrass, Italian; assay: Test A preemergence; assay type: in vivo, Lolium multiflorum; conditions: Lolium multiflorum, pre-emergence, 240 h, read-out: Plant response rating, Ryegrass, Italian; for pest or weed control at 125 g/ha: 125 g ai/ha; for pest or weed control at 500 g/ha: 500 g ai/ha
Procedure, shortened: as §1

[8] = tested on: wheat; assay: Test A preemergence; assay type: in vivo, Triticum aestivum; conditions: Triticum aestivum, pre-emergence, 240 h, read-out: Plant response rating, Wheat; for plant injury at 125 g/ha: 125 g ai/ha; for plant injury at 500 g/ha: 500 g ai/ha
Procedure, shortened: as §1

[9] = tested on: ragweed; assay: Test A preemergence; assay type: in vivo, Ambrosia artemisiifolia; conditions: Ambrosia artemisiifolia, pre-emergence, 240 h, read-out: Plant response rating, Ragweed; for pest or weed control at 125 g/ha: 125 g ai/ha; for pest or weed control at 500 g/ha: 500 g ai/ha
Procedure, shortened: as §1

[10] = tested on: rice; assay: Test B flooded paddy test; assay type: in vivo, Oryza sativa; conditions: Oryza sativa, 312 h; 250 g ai/ha, Flood, 13 days, 0 to 100 scale (0 no effect, 100 complete control); read-out: Plant response rating, Rice
Procedure, shortened: (§2)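 Two-leaf plants, 3 cm flood, in-water application, 13-day greenhouse hold, visual 0–100 rating vs untreated checks.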

[11] = tested on: oat, wild; assay: Test A preemergence; assay type: in vivo, Avena fatua; conditions: Avena fatua, pre-emergence, 240 h, read-out: Plant response rating, Oat, Wild; for pest or weed control at 125 g/ha: 125 g ai/ha; for pest or weed control at 500 g/ha: 500 g ai/ha
Procedure, shortened: as §1

[12] = tested on: ducksalad; assay: Test B flooded paddy test; assay type: in vivo, Heteranthera limosa; conditions: Heteranthera limosa, 312 h, 250 g ai/ha, Flood, 13 days, 0 to 100 scale (0 no effect, 100 complete control); read-out: Plant response rating, Ducksalad
Procedure, shortened: as §2

[13] = tested on: barnyardgrass; assay: Test B flooded paddy test; assay type: in vivo, Echinochloa crus-galli; conditions: Echinochloa crus-galli, 312 h, 250 g ai/ha, Flood, 13 days, 0 to 100 scale (0 no effect, 100 complete control); read-out: Plant response rating, Barnyardgrass
Procedure, shortened: as §2

[14] = tested on: corn; assay: Test A preemergence; assay type: in vivo, Zea mays; conditions: Zea mays, pre-emergence, 240 h; for Corn plant response rating (crop injury, 0 = no effect, 100 = complete kill) at 125 g/ha: 125 g ai/ha; for Corn plant response rating (crop injury, 0 = no effect, 100 = complete kill) at 500 g/ha: 500 g ai/ha
Procedure, shortened: as §1

[15] = visual injury after 10 days, 0 to 100 scale, 0 is no effect, 100 is complete control
[16] = 0 to 100 scale (0 no effect, 100 complete control), 10 days

CCc1ccc(-n2cnc(C(C)C)n2)cc1C(=O)N1C[C@H](C)Oc2c(Cl)cccc21 [Compound 94, [(2S)-8-Chloro-2,3-dihydro-2-methyl-4H-1,4-benzoxazin-4-yl][2-ethyl-5-[3-(1-methylethyl)-1H-1,2,4-triazol-1-yl]phenyl]methanone]
pest or weed control at 125 g/ha [1]: 0%
pest or weed control at 500 g/ha [1]: 50%
plant injury at 125 g/ha [2]: 100%
plant injury at 500 g/ha [2]: 100%
pest or weed control at 125 g/ha [3]: 100%
pest or weed control at 500 g/ha [3]: 100%
pest or weed control at 125 g/ha [4, 15]: 100%
pest or weed control at 500 g/ha [4, 16]: 100%
pest or weed control at 125 g/ha [5, 15]: 90%
pest or weed control at 500 g/ha [5, 16]: 100%
plant injury at 125 g/ha [6]: 80%
Corn plant response rating (crop injury, 0 = no effect, 100 = complete kill) at 500 g/ha [6]: 90%
pest or weed control at 125 g/ha [7, 15]: 90%
pest or weed control at 500 g/ha [7, 16]: 100%
plant injury at 125 g/ha [8, 15]: 50%
plant injury at 500 g/ha [8, 16]: 90%
pest or weed control at 125 g/ha [9, 15]: 0%
pest or weed control at 500 g/ha [9, 16]: 0%
plant injury at 250 g/ha [10]: 0%
pest or weed control at 125 g/ha [11, 15]: 40%
pest or weed control at 500 g/ha [11, 16]: 90%
pest or weed control at 250 g/ha [12]: 70%
pest or weed control at 250 g/ha [13]: 30%
Corn plant response rating (crop injury, 0 = no effect, 100 = complete kill) at 125 g/ha [14, 15]: 60%
Corn plant response rating (crop injury, 0 = no effect, 100 = complete kill) at 500 g/ha [14, 16]: 90%

Cc1cccc2c1O[C@@H](C)CN2C(=O)c1cccc(-n2cnc(C3COC3)n2)c1 [Compound 109, [(2S)-2,3-Dihydro-2,8-dimethyl-4H-1,4-benzoxazin-4-yl][3-[3-(3-oxetanyl)-1H-1,2,4-triazol-1-yl]phenyl]methanone]
pest or weed control at 125 g/ha [1]: 10%
pest or weed control at 500 g/ha [1]: 30%
plant injury at 125 g/ha [2]: 100%
plant injury at 500 g/ha [2]: 100%
pest or weed control at 125 g/ha [3]: 70%
pest or weed control at 500 g/ha [3]: 90%
pest or weed control at 125 g/ha [4, 15]: 90%
pest or weed control at 500 g/ha [4, 16]: 100%
pest or weed control at 125 g/ha [5, 15]: 60%
pest or weed control at 500 g/ha [5, 16]: 90%
plant injury at 125 g/ha [6]: 60%
Corn plant response rating (crop injury, 0 = no effect, 100 = complete kill) at 500 g/ha [6]: 90%
pest or weed control at 125 g/ha [7, 15]: 80%
pest or weed control at 500 g/ha [7, 16]: 100%
plant injury at 125 g/ha [8, 15]: 40%
plant injury at 500 g/ha [8, 16]: 90%
pest or weed control at 125 g/ha [9, 15]: 40%
pest or weed control at 500 g/ha [9, 16]: 80%
plant injury at 250 g/ha [10]: 0%
pest or weed control at 125 g/ha [11, 15]: 50%
pest or weed control at 500 g/ha [11, 16]: 90%
pest or weed control at 250 g/ha [12]: 75%
pest or weed control at 250 g/ha [13]: 40%
Corn plant response rating (crop injury, 0 = no effect, 100 = complete kill) at 125 g/ha [14, 15]: 40%
Corn plant response rating (crop injury, 0 = no effect, 100 = complete kill) at 500 g/ha [14, 16]: 70%

Cc1cccc2c1O[C@@H](C)CN2C(=O)c1cccc(-n2cnn(C)c2=O)c1 [Compound 117, 4-[3-[[(2S)-2,3-Dihydro-2,8-dimethyl-4H-1,4-benzoxazin-4-yl]carbonyl]phenyl]-2,4-dihydro-2-methyl-3H-1,2,4-triazol-3-one]
pest or weed control at 125 g/ha [1]: 0%
pest or weed control at 500 g/ha [1]: 10%
plant injury at 125 g/ha [2]: 60%
plant injury at 500 g/ha [2]: 100%
pest or weed control at 125 g/ha [3]: 30%
pest or weed control at 500 g/ha [3]: 70%
pest or weed control at 125 g/ha [4, 15]: 20%
pest or weed control at 500 g/ha [4, 15]: 80%
pest or weed control at 125 g/ha [5, 15]: 0%
pest or weed control at 500 g/ha [5, 15]: 60%
plant injury at 125 g/ha [6]: 0%
Corn plant response rating (crop injury, 0 = no effect, 100 = complete kill) at 500 g/ha [6]: 50%
pest or weed control at 125 g/ha [7, 15]: 40%
pest or weed control at 500 g/ha [7, 15]: 100%
plant injury at 125 g/ha [8, 15]: 0%
plant injury at 500 g/ha [8, 15]: 20%
pest or weed control at 125 g/ha [9, 15]: 0%
pest or weed control at 500 g/ha [9, 15]: 40%
plant injury at 250 g/ha [10]: 0%
pest or weed control at 125 g/ha [11, 15]: 20%
pest or weed control at 500 g/ha [11, 15]: 70%
pest or weed control at 250 g/ha [12]: 0%
pest or weed control at 250 g/ha [13]: 0%
Corn plant response rating (crop injury, 0 = no effect, 100 = complete kill) at 125 g/ha [14, 15]: 0%
Corn plant response rating (crop injury, 0 = no effect, 100 = complete kill) at 500 g/ha [14, 15]: 10%
